The subject of one experiment is U87-MG-xenografted mice. In words: Survival of U87-MG-xenografted mice. It counts as in vivo. To be noted: 80 or 120 mg/kg 7-NI daily, vs saline vehicle.
Experiment [1] concerns SH-SY5Y cells. Put plainly: NADPH-diaphorase staining of SH-SY5Y cells. It counts as cell-based, human. To be noted: 7-NI treated vs untreated group. The method, then: (§1) Human neuroblastoma (“NB”) SH-SY5Y cells were obtained from the American Type Culture Collection (ATCC) and maintained in Dulbecco's modified Eagle's medium (DMEM) and Ham's F-12 (1:1) supplemented with 10% fetal bovine serum, 2 mM L-glutamine, and 100 U/ml penicillin-G/[…] streptomycin in the humidified atmosphere (37° C., 5% CO2). Cells were plated onto 25 cm^2 and 75 cm^2 at a density of […] respectively for Western blotting (WB) and 1×10^5 for immunofluorescence. The SH-SY5Y cells were treated with 100 μM 7-nitroindazole (7-NI) for 24 hr. This concentration was confirmed in the dose-response experiment (FIG. 1) using an MTT viability assay.
NADPH diaphorase staining were done using NBT as a chromogen and […] as a reductant to detect cells with NOS activity. Cells were cultured and treated as described previously in the immunofluorescence section. Then cells were fixed with 4% PFA for 30 min at room temperature in dark. After fixation, the cells were washed 2 times with PBS and then incubated in 0.2% Triton X-100 (in phosphate buffer) for 10 min. The cells were then incubated in […] NBT-NADPH solution for 2 h at 37C. The cells were washed twice with PBS and permanently mounted with DPX. Images were analyzed with a Nikon confocal TL microscope. […]

Experiment [2] relates to SH-SY5Y cells. In words: Nitrite (Griess) assay in SH-SY5Y cells. The format is cell-based, human. To be noted: 7-NI. The method, then:
as §1
Released NO was measured with Griess assay Kit (Sigma-Aldrich, Cat. No. 23479) using the manufacturer's instructions.
SH-SY5Y cells were plated in 6 well plates, as well as on 22 mm^2 coverslips at a density of 6.0×10^4 cells/cm^2 and transfected with 20 nM nNOS siRNA (SEQ ID NO: 4) for 24 h, with the use of Lipofectamine RNAi MAX (56530, Invitrogen) according to the manufacturer's protocol. Then cells were washed with phosphate-buffered saline (PBS) and harvested for WB and fixed for immunofluorescence.
Background: The Griess reaction detects nitrite, a stable product of nitric oxide.

For experiment [3], the system named is SH-SY5Y cells. Put plainly: Confocal immunofluorescence of SH-SY5Y cells (3-Ntyr, Syp). It counts as cell-based, human. The conditions noted are these: 7-NI. Here is the method: as §1
Cells cultured on coverslips coated with Poly-D-Lysine were washed three times with PBS and fixed in 4% paraformaldehyde for 15-20 min at room temperature. The fixed cells were washed three times with PBS and incubated in the presence of permeabilization buffer (PBS containing 0.1% Triton X-100) for 5 min at room temperature. […]

The test system of experiment [4] is SH-SY5Y cells. Put plainly: Xenograft neuroblastoma model, SH-SY5Y cells in NSG mice. The conditions noted are these: NSG male mice, 80 mg/kg 7-NI intraperitoneally three times per week, one month, vs control. The format is in vivo. The method, then: A xenograft neuroblastoma model was generated by injecting 4.0×10^6 SH-SY5Y cells (in a 50:50 mixture of PBS and matrigel basement membrane matrix) into the subcutaneous tissue in the flank of NOD SCID Gamma (NSG) male mice. Mice were 6-8 weeks old at time of injections. The mice were examined for 1 month.
Two treatment groups of mice were used (n=8), wherein one group was administered control, and the second group was administered 80 mg/kg of 7-NI administered intraperitoneally three times per week. Treatment started after five days from the injection with SH-SY5Y cells. After one month, all mice were euthanized, and tumors were harvested for ex vivo analysis and histology. Tumor volume was measured using calipers and was calculated as (length^2*width)/2

Another experiment concerns U87-MG cells. In words: Xenograft glioblastoma model, U87-MG cells in NSG mice: tumor volume and mass. The format is in vivo. The method, then:
A xenograft glioblastoma model was generated by injecting 1.0×10^6 U87-MG cells (in PBS) into the subcutaneous tissue in the flank of NOD SCID Gamma (NSG) male (n=40) and female mice (n=5). Mice were 6-7 weeks old at time of injections. Mice were divided into groups and treatment was started when tumor volume reached 50 mm^3.
An initial experiment was performed with two treatment groups of mice, the treatment groups were: 0.1% DMSO (“Vehicle”) (n=10) and 80 mg/kg of 7-NI (n=10). Treatments were administered intraperitoneally daily for 8 days. Treatment started after five days from the injection with U87-MG cells. After one month, all mice were euthanized, and tumors were harvested for ex vivo analysis and histology. Tumor volume was measured using calipers and was calculated as (length*width^2)/2. The tumor volume of all mice were tabulated, as well the best 4-5 mice in terms of treatment efficacy (smallest tumor volume).
A dose response experiment was performed in the mice, the treatment groups were 0.1% DMSO (“Vehicle”) (n=8), 20 mg/kg 7-NI (n=8), 40 mg/kg 7-NI (n=8), and 80 mg/kg 7-NI (n=8). Treatments were administered intraperitoneally daily, for 14 days. Treatment started after five days from the injection with U87-MG cells. All mice were euthanized, and tumors were harvested for ex vivo analysis and histology. Tumor volume was measured using calipers and was calculated as (length*width^2)/2. The tumor volume of all mice were tabulated, as well the tumor mass.

The subject of experiment [5] is U87-MG human glioblastoma cell line. Put plainly: 3-Ntyr levels in U87-MG cells after treatment. It counts as cell-based. The conditions noted are these: compared to the control, not significant (FIGS. 12C-12D).
[6] abbreviates: highest dosage of 7-NI (80 mg/kg) in dose response experiment, daily for 14 days, vs lower dosages.
Setting [7] is: reduced dosages, as low as 20 mg/kg 7-NI intraperitoneally daily for 14 days, vs vehicle.

`O=[N+]([O-])c1cccc2cn[nH]c12` [7-NI, 7-nitroindazole]: the survival result with U87-MG-xenografted mice was “increased survival”. In the experiment on SH-SY5Y cells [1], the NADPH diaphorase staining result is listed as “decreased”. Moreover, in the experiment on SH-SY5Y cells [2], the “nitrite content (Griess assay)” value is reported as “dramatic reduction”. Besides, in the experiment with SH-SY5Y cells [3], the “fluorescence intensity of 3-Ntyr” value is given as “significantly decreased”. Moreover, the “fluorescence intensity of Syp” value in the experiment with SH-SY5Y cells [3] is recorded as “significantly decreased”. Also, the average tumor size entry in the experiment with SH-SY5Y cells [4] is “significantly smaller”; in the experiment on U87-MG cells (NSG mice, 80 mg/kg 7-NI intraperitoneally daily for 8 days, vs vehicle), “significantly smaller”; in the experiment with U87-MG cells (setting [6]), “larger reduction”; in the experiment on U87-MG cells (setting [7]), “significantly smaller”. Also, the tumor mass result in the experiment on U87-MG cells (setting [6]) is “larger reduction”; in the experiment on U87-MG cells (setting [7]), “smaller”.

In the case of `CC(=N)NCCCC[C@H](N)C(=O)O` [L-NIL, N^6-(1-iminoethyl)-L-lysine], the 3-Ntyr levels result was “reduced” in experiment [5] (higher dose) and “slightly increased” in experiment [5] (lower dose).

(Values after patent US20260284009A1, “COMPOUNDS FOR NOS-RELATED CANCERS AND METHODS OF USE” (YISSUM RESEARCH DEVELOPMENT COMPANY OF THE HEBREW …, priority 2023, published 2026).)
